Columns and labels:
murine keratinocytes = assay: antiproliferative activity in murine keratinocytes (standard in vitro protocol); format: cell-based; settings: Mus musculus, Keratinocyte, read-out: Antiproliferative IC50
human recombinant VDR = biological target: T1, human recombinant VDR (Homo sapiens, UniProt P11473); assay: competitive binding to the human VDR
T1 construct: purchased Biomol SE-140
T1 sequence (P11473 1-427): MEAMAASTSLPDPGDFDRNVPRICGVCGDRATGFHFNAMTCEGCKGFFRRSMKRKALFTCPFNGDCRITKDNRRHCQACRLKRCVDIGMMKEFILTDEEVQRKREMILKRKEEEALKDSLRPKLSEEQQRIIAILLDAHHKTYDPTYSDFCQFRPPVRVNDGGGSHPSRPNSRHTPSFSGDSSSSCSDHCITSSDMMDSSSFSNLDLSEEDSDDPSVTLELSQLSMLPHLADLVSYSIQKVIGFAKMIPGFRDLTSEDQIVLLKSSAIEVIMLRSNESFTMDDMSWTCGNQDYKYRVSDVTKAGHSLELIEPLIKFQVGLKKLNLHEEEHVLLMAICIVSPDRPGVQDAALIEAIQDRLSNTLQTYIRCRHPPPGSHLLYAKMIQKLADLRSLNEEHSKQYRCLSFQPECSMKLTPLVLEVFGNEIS

[1] = in vivo calciuric activity, calcium levels in rat urine; settings: relative activity (A = 1)

Row | SMILES | IC50 (murine keratinocytes) [nM] | IC50 (human recombinant VDR) [nM] | Calciuria Activity Compared to 1 [1]
1 | C=C1/C(=C\C=C2/CCC[C@]3(C)[C@@H]([C@H](C)COCC4=CCCCC4(C)C)CC[C@@H]23)C[C@@H](O)C[C@@H]1O [Analog 1d] | 50 | 300 | <0.02
2 | C=C1/C(=C\C=C2/CCC[C@]3(C)[C@@H]([C@H](C)CCCC(C)(C)O)CC[C@@H]23)C[C@@H](O)C[C@@H]1O [A, 1α,25-dihydroxyvitamin D3, reference compound] | 80 | – | 1

From US9481646B2, “Low calcemic, highly antiproliferative, analogs of calcitriol” (The Johns Hopkins University, priority 2007, dated 2016)
